US10729653B2, “Pharmaceutical compositions comprising 2-oxo-1-pyrrolidine derivatives” (UCB BIOPHARMA SRL, priority 2009, dated 2020)

Experiments:
[1] = tested on: refractory partial onset seizures; details: adult patients, adjunctive treatment; cited from earlier work
corneal kindling of mice = assay: corneal kindling of mice; format: in vivo
[2] = tested on: tonic hindlimb extension induced by a maximal electroshock in mice; assay: maximal electroshock in mice; format: in vivo; details: i.p. 30 min before seizure induction; higher ED50 values than in audiogenic mice
[3] = tested on: genetically sound-sensitive male mice; assay: audiogenic seizures in mice; format: in vivo; details: audiogenic seizure-susceptible mice; i.p., brivaracetam 30 min, levetiracetam 60 min pretreatment
Procedure: Audiogenic seizures in mice: Genetically sound-sensitive male mice (16-28 g; n=10 per group), responding with wild running, clonic and tonic convulsions to an acoustic stimulation, were used. Audiogenic seizures were induced by an acoustic stimulus (90 dB, 10-20 kHz) applied for 30 s. The mice were pretreated with either saline, brivaracetam (i.p., 30 min) or levetiracetam (i.p., 60 min), and the proportion of mice protected against clonic convulsions was used as the end point to assess anticonvulsant activity.

[4] = tested on: pentylenetetrazol-induced clonic convulsions in mice; assay: chemically induced seizures in mice (pentylenetetrazol); format: in vivo; details: i.p. 30 min before seizure induction; higher ED50 values than in audiogenic mice
Procedure: The dose was selected based on dose-effect curves in saline-treated animals as the convulsive dose inducing clonic convulsions of all four extremities in 97% of the animals. Immediately after administration of the chemoconvulsant, the mice were placed individually in small plastic cages (25 13 8 cm) and observed for the presence of clonic convulsions in all four extremities, for 60 min. The occurrence of tonic convulsions (hindlimb extension) and mortality was also recorded during this interval. The proportion of mice protected against clonic convulsions was calculated and used as the end point for anticonvulsant activity.

rat hippocampal slices [5] = assay: epileptiform responses in hippocampal slices (CA3 field potentials); format: cell-based, Sprague-Dawley rats; set-up: rate of spontaneous field bursting: dose or concentration left out as unconfirmed; details: for evoked epileptiform responses (PS1 amplitude, repetitive PSs) in CA3: high-K+/low-Ca2+ fluid (HKLCF) perfusion, fimbrial stimulation
Procedure: The effect of brivaracetam on epileptiform responses induced by high-K+/low-Ca2+ concentrations or by bicuculline was examined in transverse hippocampal slices prepared from Sprague-Dawley rats according to previously reported standard procedures. The epileptiform responses were induced by passing from a normal perfusion of artificial cerebrospinal fluid (ACSF) (K+3 mM; Ca2+2.4 mM) to either high-K+/low-Ca2+ fluid (HKLCF) (K+7.5 mM; Ca2+0.5 mM) or to […] bicuculline methiodide (BMI)-containing ACSF.
Extracellular field potentials (FPs) were recorded in the CA3 area of the slices with 2 M NaCl-filled glass microelectrodes. The evoked FPs were recorded at 10-min intervals in response to fimbrial stimulation with constant current rectangular pulses that elicit a single population spike (PS) of 50-75% of the maximal amplitude when the slice is in ACSF. In the HKLCF model, 2 min of spontaneous activity were also recorded, in the middle of each 10-min interval between the recordings of evoked responses.
Either brivaracetam or levetiracetam was added to the bathing fluid of the slices 20 min before shifting from ACSF to either HKLCF or […] BMI-containing ACSF, and was kept in the perfusion fluid throughout the experiment.

[6] = tested on: fully amygdala-kindled rats; assay: fully amygdala-kindled rats; format: in vivo, rat; details: for dose from which a significant suppression in motor-seizure severity is induced: fully amygdala-kindled rats
GAERS rats = assay: spontaneous SWDs in GAERS rats; format: in vivo, rat
post-herpetic neuralgia = details: patients; cited from earlier work
rat hippocampal slices [7] = details: background statement; cited from earlier work

| Structure (SMILES) | efficacy in the treatment of epilepsy [1] | incidence of generalized motor seizures after termination of treatment (corneal kindling of mice; continued corneal stimulations, group previously treated with the highest dose) | incidence of generalized motor seizures (corneal kindling of mice; pretreatment during corneal kindling, levetiracetam at higher doses) | protection against tonic hindlimb extension induced by a maximal electroshock [2] | protection against the expression of clonic convulsions [3] | protection against clonic convulsions induced by pentylenetetrazol [4] | rate of spontaneous field bursting (rat hippocampal slices [5]; HKLCF) | evoked epileptiform responses (PS1 amplitude, repetitive PSs) in CA3 (rat hippocampal slices [5]) | dose from which a significant suppression in motor-seizure severity is induced [6] [mg/kg] | after-discharge duration ([6]; highest dose tested (212.3 mg kg-1)) | dose from which spontaneous SWDs are significantly suppressed (GAERS rats; GAERS rats) [mg/kg] | inhibition of spontaneous SWDs (GAERS rats; highest dose tested (67.9 mg kg-1)) | efficacy in post-herpetic neuralgia (post-herpetic neuralgia) | epileptiform responses induced by high-K+/low-Ca2+ concentrations and by bicuculline (rat hippocampal slices [7]) | after-discharge duration ([6]; up to 1700 mg kg-1) |
| --- | --- | --- | --- | --- | --- | --- | --- | --- | --- | --- | --- | --- | --- | --- | --- |
| CC[C@@H](C(N)=O)N1C[C@H](C=C(F)F)CC1=O [Seletracetam, (2S)-2-[(4S)-4-(2,2-difluorovinyl)-2-oxo-pyrrolidin-1-yl]butanamide] | effective in the treatment of epilepsy |  |  |  |  |  |  |  |  |  |  |  |  |  |  |
| CCC[C@@H]1CC(=O)N([C@@H](CC)C(N)=O)C1 [Brivaracetam, (2S)-2-[(4R)-2-oxo-4-propyl-pyrrolidin-1-yl]butanamide] | effective in the treatment of epilepsy | persistent reduction in the incidence of generalized motor seizures | significant reduction in the incidence of generalized motor seizures | protected | protected | protected | reduced the rate of this spontaneous bursting | reduced these epileptiform responses | ≥ 21.2 | significantly reduced the after-discharge duration | ≥ 2.1 | complete inhibition | effective in the treatment of patients with post-herpetic neuralgia |  |  |
| CC[C@@H](C(N)=O)N1CCCC1=O [Levetiracetam] |  |  |  |  | protected |  |  | reduced these epileptiform responses | ≥ 170 |  |  |  |  | reduces epileptiform responses | inactive |
